Like-named read-outs stand apart in the source and are kept apart here.
Key:
[1] = system: HIV-1 clinical isolates; assay: Antiviral activity against HIV-1 clinical isolates in PHA-stimulated human PBMCs; assay type: cell-based
Experimental: (§1) The antiretroviral activity of the compound of Formula (Ia) was tested against a panel of 22 HIV-1 clinical isolates of HIV-1 and two HIV-2 isolates in freshly isolated, PHA-stimulated human peripheral blood mononuclear cells (PBMCs). The HIV-1 isolates included representative strains from subtypes A, B, C, D, E, F, G, N, O, AE, and AG. Following a 7-day infection, virus production was determined by measuring reverse transcriptase activity in cell-free culture supernatants.

[2] = system: HIV-2 isolates; assay: Antiviral activity against HIV-2 isolates in PHA-stimulated human PBMCs; assay type: cell-based; conditions: Human immunodeficiency virus 2, PBMC, 168 h, 7-day infection, RT activity readout, mean of triplicate
Experimental: as §1

[3] = system: WT HXB2D; assay: Cytopathic antiviral assay in MT-2 cells, wild type HXB2D; assay type: cell-based, HIV-1; conditions: Human immunodeficiency virus 1, MT2, read-out: WT HXB2D EC50, MT-2 cells, mean ± s.d. of three experiments in triplicate
Experimental: (§2) The antiviral activity of the compound of Formula (a) was tested against a panel of known HIV-1 mutants resistant to HIV PIs (ATV and DRV), NRTIs (TFV and FTC), NNRTIs (RPV and EFV) or INSTIs (RAL, EVG and DTG) using a cytopathic antiviral assay in MT-2 cells. The compound of Formula (Ia) was fully active against all tested mutants resistant to PIs (Table 11), NRTIs (Table 12), NNRTIs (Table 13) or INSTIs (Table 14).

[4] = system: INSTI-resistant viruses; assay: Cytopathic antiviral assay in MT-2 cells, INSTI-resistant viruses; assay type: cell-based, HIV-1; conditions: Mutant/WT (HXB2D) EC50 ratio, mean ± s.d. of three experiments
Experimental: as §2

[5] = system: WT LAI; assay: microbe, parasite or virus in culture; assay type: cell-based, HIV-1; conditions: Human immunodeficiency virus 1, MT2, read-out: WT LAI EC50
Experimental: (§3) The antiviral activity of the compound of Formula (a) was tested against a panel of known HIV-1 mutants resistant to HIV PIs (ATV and DRV), NRTIs (TFV and FTC), NNRTIs (RPV and EFV) or INSTIs (RAL, EVG and DTG) using a cytopathic antiviral assay in MT-2 cells.

[6] = system: PI-resistant viruses; assay: Cytopathic antiviral assay in MT-2 cells, PI-resistant viruses; assay type: cell-based, HIV-1; conditions: Mutant/WT (HXB2D) EC50 ratio, mean ± s.d. of three experiments
Experimental: as §2

[7] = system: NRTI-resistant viruses; assay type: cell-based, HIV-1; conditions: Mutant/WT (LAI) EC50 ratio, MT-2 cells, mean ± s.d. of three experiments
Experimental: as §3

[8] = Human immunodeficiency virus 1, BAL, PBMC, 168 h, read-out: EC50 in human PBMCs, HIV-1 subtype B isolate Ba-L, 7-day infection, RT activity readout, mean of triplicate
[9] = Human immunodeficiency virus 1, PBMC, 168 h, read-out: EC50 in human PBMCs, HIV-1 CRF01_AE isolate 90TH_CM235, 7-day infection, RT activity readout, mean of triplicate
[10] = Human immunodeficiency virus 1, PBMC, 168 h, read-out: EC50 in human PBMCs, HIV-1 CRF02_AG isolate 01CM0008BBY, 7-day infection, RT activity readout, mean of triplicate
[11] = Human immunodeficiency virus 1, PBMC, 168 h, read-out: EC50 in human PBMCs, HIV-1 CRF02_AG isolate 91DJ263, 7-day infection, RT activity readout, mean of triplicate
[12] = Human immunodeficiency virus 1, PBMC, 168 h, read-out: EC50 in human PBMCs, HIV-1 Group N isolate YBF30, 7-day infection, RT activity readout, mean of triplicate
[13] = Human immunodeficiency virus 1, PBMC, 168 h, read-out: EC50 in human PBMCs, HIV-1 Group O isolate BCF01, 7-day infection, RT activity readout, mean of triplicate
[14] = Human immunodeficiency virus 1, PBMC, 168 h, read-out: EC50 in human PBMCs, HIV-1 subtype A isolate 92UG031, 7-day infection, RT activity readout, mean of triplicate
[15] = Human immunodeficiency virus 1, PBMC, 168 h, read-out: EC50 in human PBMCs, HIV-1 subtype A isolate 92UG037, 7-day infection, RT activity readout, mean of triplicate
[16] = Human immunodeficiency virus 1, PBMC, 168 h, read-out: EC50 in human PBMCs, HIV-1 subtype B isolate 89BZ_167, 7-day infection, RT activity readout, mean of triplicate
[17] = Human immunodeficiency virus 1, PBMC, 168 h, read-out: EC50 in human PBMCs, HIV-1 subtype B isolate 90US_873, 7-day infection, RT activity readout, mean of triplicate
[18] = Human immunodeficiency virus 1, PBMC, 168 h, read-out: EC50 in human PBMCs, HIV-1 subtype B isolate 91US001, 7-day infection, RT activity readout, mean of triplicate
[19] = Human immunodeficiency virus 1, PBMC, 168 h, read-out: EC50 in human PBMCs, HIV-1 subtype B isolate 91US004, 7-day infection, RT activity readout, mean of triplicate
[20] = Human immunodeficiency virus 1, PBMC, 168 h, read-out: EC50 in human PBMCs, HIV-1 subtype B isolate 96TH_NP1538, 7-day infection, RT activity readout, mean of triplicate
[21] = Human immunodeficiency virus 1, PBMC, 168 h, read-out: EC50 in human PBMCs, HIV-1 subtype B isolate JR-CSF, 7-day infection, RT activity readout, mean of triplicate
[22] = Human immunodeficiency virus 1, PBMC, 168 h, read-out: EC50 in human PBMCs, HIV-1 subtype C isolate 92BR025, 7-day infection, RT activity readout, mean of triplicate
[23] = Human immunodeficiency virus 1, PBMC, 168 h, read-out: EC50 in human PBMCs, HIV-1 subtype C isolate 98US_MSC5016, 7-day infection, RT activity readout, mean of triplicate
[24] = Human immunodeficiency virus 1, PBMC, 168 h, read-out: EC50 in human PBMCs, HIV-1 subtype D isolate 92UG001, 7-day infection, RT activity readout, mean of triplicate
[25] = Human immunodeficiency virus 1, PBMC, 168 h, read-out: EC50 in human PBMCs, HIV-1 subtype D isolate 98UG_57128, 7-day infection, RT activity readout, mean of triplicate
[26] = Human immunodeficiency virus 1, PBMC, 168 h, read-out: EC50 in human PBMCs, HIV-1 subtype E isolate CMU02, 7-day infection, RT activity readout, mean of triplicate
[27] = Human immunodeficiency virus 1, PBMC, 168 h, read-out: EC50 in human PBMCs, HIV-1 subtype E isolate CMU08, 7-day infection, RT activity readout, mean of triplicate
[28] = Human immunodeficiency virus 1, PBMC, 168 h, read-out: EC50 in human PBMCs, HIV-1 subtype F isolate 93BR020, 7-day infection, RT activity readout, mean of triplicate
[29] = Human immunodeficiency virus 1, PBMC, 168 h, read-out: EC50 in human PBMCs, HIV-1 subtype G isolate JV1083, 7-day infection, RT activity readout, mean of triplicate
[30] = Human immunodeficiency virus 1, PBMC, read-out: HIV-1 EC50 Mean ± s.d., mean over the 22 HIV-1 clinical isolates, human PBMCs
[31] = Human immunodeficiency virus 1, PBMC, read-out: HIV-1 EC50 Median, median over the 22 HIV-1 clinical isolates, human PBMCs
[32] = Human immunodeficiency virus 1, PBMC, read-out: HIV-1 EC50 Range, range over the 22 HIV-1 clinical isolates, human PBMCs
[33] = INSTI-resistance panel (Table 14)

## Cc1cn([C@H]2C[C@H](N=[N+]=[N-])[C@@H](CO)O2)c(=O)[nH]c1=O [AZT, zidovudine]
[1]; [8]
  EC50: 43.2 nM
[1]; [9]
  EC50: 10.7 nM
[1]; [10]
  EC50: 8.21 nM
[1]; [11]
  EC50: 34.9 nM
[1]; [12]
  EC50: 8.96 nM
[1]; [13]
  EC50: 10.5 nM
[1]; [14]
  EC50: 51.6 nM
[1]; [15]
  EC50: 21.7 nM
[1]; [16]
  EC50: 10.1 nM
[1]; [17]
  EC50: 13.2 nM
[1]; [18]
  EC50: 20.3 nM
[1]; [19]
  EC50: 19.7 nM
[1]; [20]
  EC50: 4.1 nM
[1]; [21]
  EC50: 4.53 nM
[1]; [22]
  EC50: 16.9 nM
[1]; [23]
  EC50: 37.8 nM
[1]; [24]
  EC50: 7.29 nM
[1]; [25]
  EC50: 6.61 nM
[1]; [26]
  EC50: 8.13 nM
[1]; [27]
  EC50: 34.1 nM
[1]; [28]
  EC50: 25.1 nM
[1]; [29]
  EC50: 20.5 nM
[1]; [30]
  EC50: 19 ± 13.5 nM
[1]; [31]
  EC50: 15.1 nM
[1]; [32]
  EC50: 4.1 to 51.6 nM
[2]; HIV-2 isolate CBL-20
  EC50: 14.3 nM
[2]; HIV-2 isolate CDC310319
  EC50: 28.8 nM

## C[C@@H]1CCO[C@H]2Cn3cc(C(=O)NCc4ccc(F)cc4F)c(=O)c(O)c3C(=O)N12 [DTG, dolutegravir]
[1]; [8]
  EC50: 0.4 nM
[1]; [9]
  EC50: 1.02 nM
[1]; [10]
  EC50: 1.04 nM
[1]; [11]
  EC50: 0.45 nM
[1]; [12]
  EC50: 0.54 nM
[1]; [13]
  EC50: 0.64 nM
[1]; [14]
  EC50: 0.63 nM
[1]; [15]
  EC50: 0.47 nM
[1]; [16]
  EC50: 1.18 nM
[1]; [17]
  EC50: 0.82 nM
[1]; [18]
  EC50: 0.53 nM
[1]; [19]
  EC50: 0.4 nM
[1]; [20]
  EC50: 0.4 nM
[1]; [21]
  EC50: 0.41 nM
[1]; [22]
  EC50: 0.91 nM
[1]; [23]
  EC50: 0.77 nM
[1]; [24]
  EC50: 1.09 nM
[1]; [25]
  EC50: 0.7 nM
[1]; [26]
  EC50: 0.81 nM
[1]; [27]
  EC50: 0.96 nM
[1]; [28]
  EC50: 0.38 nM
[1]; [29]
  EC50: 0.93 nM
[1]; [30]
  EC50: 0.7 ± 0.26 nM
[1]; [31]
  EC50: 0.67 nM
[1]; [32]
  EC50: 0.38 to 1.18 nM
[2]; HIV-2 isolate CBL-20
  EC50: 0.36 nM
[2]; HIV-2 isolate CDC310319
  EC50: 1.81 nM
[3]; [33]
  EC50: 2.24 ± 0.46 nM
[4]; E92Q/N155H
  EC50 Fold-Change: 3.0 ± 1.1
[4]; E138K/Q148K
  EC50 Fold-Change: 7.3 ± 4.1
[4]; G140S/Q148R
  EC50 Fold-Change: 6.9 ± 3.1
[4]; N155H/Q148R
  EC50 Fold-Change: 1.5 ± 0.6
[4]; R263K/M50I
  EC50 Fold-Change: 2.8 ± 2.1
[4]; Y143R
  EC50 Fold-Change: 0.8 ± 0.3

## COc1cc2c(cc1Cc1cccc(Cl)c1F)c(=O)c(C(=O)O)cn2[C@H](CO)C(C)C [EVG, elvitegravir]
[3]; [33]
  EC50: 1.87 ± 0.19 nM
[3]; PI-resistance panel (Table 11)
  EC50: 2.02 ± 0.88 nM
[5]
  EC50: 2.64 ± 0.9 nM
[6]; G48V/V82A/L90M
  EC50 Fold-Change: 0.8 ± 0.4
[6]; G48V/V82S
  EC50 Fold-Change: 0.7 ± 0.3
[6]; I50V
  EC50 Fold-Change: 1.7 ± 1.0
[6]; I84V/L90M
  EC50 Fold-Change: 1.0 ± 0.7
[7]; 6TAMs
  EC50 Fold-Change: 0.6 ± 0.4
[7]; K65R
  EC50 Fold-Change: 0.8 ± 0.2
[7]; M184V
  EC50 Fold-Change: 1.1 ± 0.7
[4]; E92Q/N155H
  EC50 Fold-Change: >53.5
[4]; E138K/Q148K
  EC50 Fold-Change: >53.5
[4]; G140S/Q148R
  EC50 Fold-Change: >53.5
[4]; N155H/Q148R
  EC50 Fold-Change: 51.0 ± 2.5
[4]; R263K/M50I
  EC50 Fold-Change: 5.1 ± 3.7
[4]; Y143R
  EC50 Fold-Change: 2.1 ± 0.2

## Nc1nc(=O)n([C@@H]2CS[C@H](CO)O2)cc1F [FTC, emtricitabine]
[5]
  EC50: 2.41 ± 1.16 nM
[7]; 6TAMs
  EC50 Fold-Change: 4.1 ± 2.5
[7]; K65R
  EC50 Fold-Change: 12.8 ± 2.4
[7]; M184V
  EC50 Fold-Change: >20.8
